Our source for the Ki and IC50 values is US9493511B2, “Cyclosporin analogs” (Allergan, Inc., priority 2010, dated 2016).

pIC50, pKi: −log10 of the molar value. Where a name gives a salt, the structure may show the parent alone. Read-outs that look alike come from different tables or passages of the source. Square brackets hold non-standard residues; d marks the D form. Peptide text beside a SMILES is read from it. * marks the point of attachment. NMe(2-epi-Bmt) = C/C=C/C[C@@H](C)[C@@H](O)[C@@H](NC)C(=O)O; Ethyl(2-morpholino) = C1CN(CC*)CCO1; Ethyl(2-guanidino) = N=C(N)NCC*; Ala(3-yl) = N[C@@H](C*)C(=O)O; NMeL = CN[C@@H](CC(C)C)C(=O)O; dNMeL = CN[C@H](CC(C)C)C(=O)O; dNMeV = CN[C@@H](C(=O)O)C(C)C; dNMeC = CN[C@H](CS)C(=O)O; dAbu = CC[C@@H](N)C(=O)O; Et2NCH2CH2 = CCN(CC)CC*; CH2CH2COOH = O=C(O)CC*; X3 = c1cc(CC*)ccn1; X5 = CN1CCC(*)CC1; X6 = COC(=O)CC*; X1 = COC(=O)C*; X4 = CC(C)NCC*; X2 = CCCCC*

In one assay the target is human recombinant Cyp A (Homo sapiens, UniProt P62937). Put plainly: biochemical.
Sequence of human recombinant Cyp A (P62937 whole entry): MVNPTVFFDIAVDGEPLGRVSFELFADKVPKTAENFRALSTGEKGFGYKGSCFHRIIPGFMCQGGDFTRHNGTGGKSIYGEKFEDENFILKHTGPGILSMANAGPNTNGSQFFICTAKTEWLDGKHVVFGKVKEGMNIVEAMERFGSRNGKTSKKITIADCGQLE
Assay [1] deals with Spleen cells from C57BL/6 (responder) and BALB/c (stimulator) mice. Put plainly: Mixed lymphocyte reaction (MLR) assay. In kind it is cell-based, mouse. The note with it: for IC50: Mus musculus, read-out: MLR nM.
The next assay deals with Calcineurin (Homo sapiens, UniProt P63098+Q08209). The assay is described as follows: biochemical.

In the case of `C/C=C/C[C@@H](C)[C@@H](O)[C@@H]1C(=O)N[C@H](CC)C(=O)N(C)[C@H](CSCCN(CC)CC)C(=O)N(C)[C@@H](CC(C)C)C(=O)N[C@H](C(C)C)C(=O)N(C)[C@H](CC(C)C)C(=O)N[C@H](C)C(=O)N[C@@H](C)C(=O)N(C)[C@H](CC(C)C)C(=O)N(C)[C@H](CC(C)C)C(=O)N(C)[C@H](C(C)C)C(=O)N1C` [Example 2, [(S)-2-Diethylaminoethylthiomethyl-Sar]^3 cyclosporin A] (cyclo(A[dNMeL][dNMeL][dNMeV][NMe(2-epi-Bmt)][dAbu][dNMeC](Et2NCH2CH2)[NMeL][dV][dNMeL][dA])), on human recombinant Cyp A, the negative logarithm of the Ki (pKi) was 8.62. Moreover, the IC50 in assay [1] is 3500 nM. Also, on Calcineurin, the pIC50 is 5.44.

Take `C/C=C/C[C@@H](C)[C@@H](O)[C@@H]1C(=O)N[C@H](CC)C(=O)N(C)[C@H](CSCCc2ccncc2)C(=O)N(C)[C@@H](CC(C)C)C(=O)N[C@H](C(C)C)C(=O)N(C)[C@H](CC(C)C)C(=O)N[C@H](C)C(=O)N[C@@H](C)C(=O)N(C)[C@H](CC(C)C)C(=O)N(C)[C@H](CC(C)C)C(=O)N(C)[C@H](C(C)C)C(=O)N1C` [Example 3, [(S)-2-(4-pyridyl)ethylthiomethyl-Sar]^3 cyclosporin A] (cyclo(A[dNMeL][dNMeL][dNMeV][NMe(2-epi-Bmt)][dAbu][dNMeC](X3)[NMeL][dV][dNMeL][dA])): the pKi on human recombinant Cyp A is 8.37. Also, in assay [1], the IC50 is 2000 nM. Besides, the pIC50 on Calcineurin was 4.93.

Regarding `C/C=C/C[C@@H](C)[C@@H](O)[C@@H]1C(=O)N[C@H](CC)C(=O)N(C)[C@H](CSC)C(=O)N(C)[C@@H](CC(C)C)C(=O)N[C@H](C(C)C)C(=O)N(C)[C@H](CC(C)C)C(=O)N[C@H](C)C(=O)N[C@@H](C)C(=O)N(C)[C@H](CC(C)C)C(=O)N(C)[C@H](CC(C)C)C(=O)N(C)[C@H](C(C)C)C(=O)N1C` [Example 4, [(S)-Methylthiomethyl-Sar]^3 cyclosporin A] (cyclo(A[dNMeL][dNMeL][dNMeV][NMe(2-epi-Bmt)][dAbu][dNMeC](Me)[NMeL][dV][dNMeL][dA])), the pKi on human recombinant Cyp A is 8.16. The pIC50 at Calcineurin is 5.66.

On to `C/C=C/C[C@@H](C)[C@@H](O)[C@@H]1C(=O)N[C@H](CC)C(=O)N(C)[C@H](CSCCCCC)C(=O)N(C)[C@@H](CC(C)C)C(=O)N[C@H](C(C)C)C(=O)N(C)[C@H](CC(C)C)C(=O)N[C@H](C)C(=O)N[C@@H](C)C(=O)N(C)[C@H](CC(C)C)C(=O)N(C)[C@H](CC(C)C)C(=O)N(C)[C@H](C(C)C)C(=O)N1C` [Example 5, [(S)-Pentylthiomethyl-Sar]^3 cyclosporin A] (cyclo(A[dNMeL][dNMeL][dNMeV][NMe(2-epi-Bmt)][dAbu][dNMeC](X2)[NMeL][dV][dNMeL][dA])), for which the pKi at human recombinant Cyp A was 8.64. Further, the IC50 in assay [1] is 2700 nM. Moreover, on Calcineurin, the pIC50 is less than 5.00.

As for `C/C=C/C[C@@H](C)[C@@H](O)[C@@H]1C(=O)N[C@H](CC)C(=O)N(C)[C@H](CSC2CCN(C)CC2)C(=O)N(C)[C@@H](CC(C)C)C(=O)N[C@H](C(C)C)C(=O)N(C)[C@H](CC(C)C)C(=O)N[C@H](C)C(=O)N[C@@H](C)C(=O)N(C)[C@H](CC(C)C)C(=O)N(C)[C@H](CC(C)C)C(=O)N(C)[C@H](C(C)C)C(=O)N1C` [Example 9] (cyclo(A[dNMeL][dNMeL][dNMeV][NMe(2-epi-Bmt)][dAbu][dNMeC](X5)[NMeL][dV][dNMeL][dA])), on human recombinant Cyp A, the pKi is 8.32. The IC50 in assay [1] is 3800 nM. For the same compound, the pIC50 at Calcineurin was 5.48.

In the case of `C/C=C/C[C@@H](C)[C@@H](O)[C@@H]1C(=O)N[C@H](CC)C(=O)N(C)[C@H](CSCCN2CCOCC2)C(=O)N(C)[C@@H](CC(C)C)C(=O)N[C@H](C(C)C)C(=O)N(C)[C@H](CC(C)C)C(=O)N[C@H](C)C(=O)N[C@@H](C)C(=O)N(C)[C@H](CC(C)C)C(=O)N(C)[C@H](CC(C)C)C(=O)N(C)[C@H](C(C)C)C(=O)N1C` [Example 10, [(S)-2-(Morpholino)ethylthiomethyl-Sar]^3 cyclosporin A] (cyclo(A[dNMeL][dNMeL][dNMeV][NMe(2-epi-Bmt)][dAbu][dNMeC](Ethyl(2-morpholino))[NMeL][dV][dNMeL][dA])), the negative logarithm of the Ki (pKi) at human recombinant Cyp A is 8.41. Further, the pIC50 at Calcineurin is 5.38.

As to `C/C=C/C[C@@H](C)[C@@H](O)[C@@H]1C(=O)N[C@H](CC)C(=O)N(C)[C@H](CSCC(=O)OC)C(=O)N(C)[C@@H](CC(C)C)C(=O)N[C@H](C(C)C)C(=O)N(C)[C@H](CC(C)C)C(=O)N[C@H](C)C(=O)N[C@@H](C)C(=O)N(C)[C@H](CC(C)C)C(=O)N(C)[C@H](CC(C)C)C(=O)N(C)[C@H](C(C)C)C(=O)N1C` [Example 11, [(S)-Carbomethoxymethylthiomethyl-Sar]^3 cyclosporin A] (cyclo(A[dNMeL][dNMeL][dNMeV][NMe(2-epi-Bmt)][dAbu][dNMeC](X1)[NMeL][dV][dNMeL][dA])), the negative logarithm of the Ki (pKi) at human recombinant Cyp A was 8.68. Besides, the IC50 in assay [1] is 19500 nM. Besides, the pIC50 on Calcineurin was 5.41.

As for `C/C=C/C[C@@H](C)[C@@H](O)[C@@H]1C(=O)N[C@H](CC)C(=O)N(C)[C@H](CSCCC(=O)OC)C(=O)N(C)[C@@H](CC(C)C)C(=O)N[C@H](C(C)C)C(=O)N(C)[C@H](CC(C)C)C(=O)N[C@H](C)C(=O)N[C@@H](C)C(=O)N(C)[C@H](CC(C)C)C(=O)N(C)[C@H](CC(C)C)C(=O)N(C)[C@H](C(C)C)C(=O)N1C` [Example 12, [(S)-Carbomethoxyethylthiomethyl-Sar]^3 cyclosporin A] (cyclo(A[dNMeL][dNMeL][dNMeV][NMe(2-epi-Bmt)][dAbu][dNMeC](X6)[NMeL][dV][dNMeL][dA])), the pKi on human recombinant Cyp A was 8.57. In addition, the pIC50 on Calcineurin is 5.04.

Consider `C/C=C/C[C@@H](C)[C@@H](O)[C@@H]1C(=O)N[C@H](CC)C(=O)N(C)[C@H](CSC(C)(C)[C@@H](N)C(=O)OC)C(=O)N(C)[C@@H](CC(C)C)C(=O)N[C@H](C(C)C)C(=O)N(C)[C@H](CC(C)C)C(=O)N[C@H](C)C(=O)N[C@@H](C)C(=O)N(C)[C@H](CC(C)C)C(=O)N(C)[C@H](CC(C)C)C(=O)N(C)[C@H](C(C)C)C(=O)N1C` [Example 13, [(S)-{(S)-2-Amino-2-carbomethoxy-1,1-dimethyl-ethyl}thiomethyl-Sar]^3 cyclosporin A], for which the pKi at human recombinant Cyp A is 8.03. Besides, the pIC50 at Calcineurin is 5.39.

As to `C/C=C/C[C@@H](C)[C@@H](O)[C@@H]1C(=O)N[C@H](CC)C(=O)N(C)[C@H](CSC[C@H](N)C(=O)O)C(=O)N(C)[C@@H](CC(C)C)C(=O)N[C@H](C(C)C)C(=O)N(C)[C@H](CC(C)C)C(=O)N[C@H](C)C(=O)N[C@@H](C)C(=O)N(C)[C@H](CC(C)C)C(=O)N(C)[C@H](CC(C)C)C(=O)N(C)[C@H](C(C)C)C(=O)N1C` [Example 14, [(S)-{(R)-2-Amino-2-carbohydroxy-ethyl}thiomethyl-Sar]^3 cyclosporin A] (cyclo(A[dNMeL][dNMeL][dNMeV][NMe(2-epi-Bmt)][dAbu][dNMeC](Ala(3-yl))[NMeL][dV][dNMeL][dA])), the pIC50 on Calcineurin is 5.13.

As to `C/C=C/C[C@@H](C)[C@@H](O)[C@@H]1C(=O)N[C@H](CC)C(=O)N(C)[C@H](CSC(C)(C)[C@@H](N)C(=O)O)C(=O)N(C)[C@@H](CC(C)C)C(=O)N[C@H](C(C)C)C(=O)N(C)[C@H](CC(C)C)C(=O)N[C@H](C)C(=O)N[C@@H](C)C(=O)N(C)[C@H](CC(C)C)C(=O)N(C)[C@H](CC(C)C)C(=O)N(C)[C@H](C(C)C)C(=O)N1C` [Example 16, [(S)-{(S)-2-Amino-2-carbohydroxy-1,1-dimethyl-ethyl}thiomethyl-Sar]^3 cyclosporin A], at human recombinant Cyp A, the pKi was 8.24. Also, the pIC50 at Calcineurin was 5.57.

`C/C=C/C[C@@H](C)[C@@H](O)[C@@H]1C(=O)N[C@H](CC)C(=O)N(C)[C@H](CSCCC(=O)O)C(=O)N(C)[C@@H](CC(C)C)C(=O)N[C@H](C(C)C)C(=O)N(C)[C@H](CC(C)C)C(=O)N[C@H](C)C(=O)N[C@@H](C)C(=O)N(C)[C@H](CC(C)C)C(=O)N(C)[C@H](CC(C)C)C(=O)N(C)[C@H](C(C)C)C(=O)N1C` [Example 17, [(S)-Carbohydroxyethylthiomethyl-Sar]^3 cyclosporin A] (cyclo(A[dNMeL][dNMeL][dNMeV][NMe(2-epi-Bmt)][dAbu][dNMeC](CH2CH2COOH)[NMeL][dV][dNMeL][dA])): the pKi on human recombinant Cyp A is 8.55. Moreover, on Calcineurin, the pIC50 was 4.77.

Regarding `C/C=C/C[C@@H](C)[C@@H](O)[C@@H]1C(=O)N[C@H](CC)C(=O)N(C)[C@H](CSCCNC(C)C)C(=O)N(C)[C@@H](CC(C)C)C(=O)N[C@H](C(C)C)C(=O)N(C)[C@H](CC(C)C)C(=O)N[C@H](C)C(=O)N[C@@H](C)C(=O)N(C)[C@H](CC(C)C)C(=O)N(C)[C@H](CC(C)C)C(=O)N(C)[C@H](C(C)C)C(=O)N1C` [Example 18, [(S)-2-Isopropylaminoethylthiomethyl-Sar]^3 cyclosporin A] (cyclo(A[dNMeL][dNMeL][dNMeV][NMe(2-epi-Bmt)][dAbu][dNMeC](X4)[NMeL][dV][dNMeL][dA])), the pKi on human recombinant Cyp A was 8.28. In addition, the pIC50 is 5.48 in assay [1] (mouse spleen cells, five days, 3H-thymidine proliferation, read-out: MLR) and 5.34 at Calcineurin.

`C/C=C/C[C@@H](C)[C@@H](O)[C@@H]1C(=O)N[C@H](CC)C(=O)N(C)[C@H](CSCCNC(=N)N)C(=O)N(C)[C@@H](CC(C)C)C(=O)N[C@H](C(C)C)C(=O)N(C)[C@H](CC(C)C)C(=O)N[C@H](C)C(=O)N[C@@H](C)C(=O)N(C)[C@H](CC(C)C)C(=O)N(C)[C@H](CC(C)C)C(=O)N(C)[C@H](C(C)C)C(=O)N1C` [Example 19, [(S)-2-Guanidinoethyl-1-sulfanylmethyl-Sar]^3 cyclosporin A hydrochloride] (cyclo(A[dNMeL][dNMeL][dNMeV][NMe(2-epi-Bmt)][dAbu][dNMeC](Ethyl(2-guanidino))[NMeL][dV][dNMeL][dA])): at human recombinant Cyp A, the pKi is 8.17. The pIC50 at Calcineurin is 5.49.

As usually defined, the pKi is the negative decadic logarithm of the Ki, by convention in mol/L.
